Key:
AF9 YEATS = biological target: T1, AF9 YEATS (Homo sapiens, UniProt P42568); assay: ALPHA assay, inhibition of the AF9 YEATS-H3K27ac interaction
T1 sequence (P42568 1-138 limits assumed): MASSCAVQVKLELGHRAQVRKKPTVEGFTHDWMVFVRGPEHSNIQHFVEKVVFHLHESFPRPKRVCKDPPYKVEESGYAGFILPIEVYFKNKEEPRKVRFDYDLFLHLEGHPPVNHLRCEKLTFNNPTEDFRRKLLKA
Text: AlphaScreen binding assay was developed using Perkin-Elmer AlphaScreen Histidine (Nickel Chelate) Detection Kit, following a reported protocol [39]. Data were imported into Prism (version 5.0), and IC50 values from 3 independent experiments with standard deviation were obtained by using a standard dose–response curve fitting.

HoxA9, Meis1 and Myc = assay: qPCR expression of HoxA9, Meis1 and Myc in Molm-13 cells; format: cell-based; details: 4 days
Procedure: Previous studies show ENL is required for expression of MLL1-target genes in MLL1-r leukemia. How compound 1-mediated ENL degradation changes expression of HoxA9, Meis1 and Myc, three characteristic genes in MLL1-r leukemia, was examined. Molm-13 cells were treated with compound 1 for 4 days, after which the RNAs were extracted and analyzed.
10^5 cells/mL were incubated with a compound for 4 days and the RNA was extracted using RNeasy mini kit (#74104, Qiagen). 100–1000 ng of total RNA was reverse transcribed using iScript™ Reverse Transcription Supermix (Bio-Rad) using the manufacturer’s protocol. Quantitative real-time PCR was carried out using Fast SYBR Green Master Mix (Applied Biosystems) according to the manufacturer’s instructions. Measurements were performed in triplicate, using GAPDH as the reference gene. Real-time PCR was performed using Biosystems Step One Plus detection system. The following sequences of primers are used: • MYC (forward: 5′-[…]-3′; reverse: 5′-[…]-3′); • HoxA9 (forward: 5′-[…]-3′; reverse: 5′-[…]-3′); • Meis1 (forward: 5′-[…]-3′; reverse: 5′-[…]-3′); • GAPDH (forward: 5′-[…]-3′; reverse: 5′-[…]-3′).

Molm-13 cells [1] = assay: Antiproliferation assay (XTT), Molm-13
Procedure: (§1) Proliferation inhibition assays for suspension blood cancer cells were performed using an XTT assay kit (Biotium), following our previous methods [22]. EC50 values were determined using Prism 5 and from at least three independent experiments.

[2] = test system: AF9, AFF4, cyclin-T1, DOT1L; assay: Other SEC-related proteins in nucleus of MV4;11 cells (Western blot); format: cell-based; details: 4 days
Text: We further investigated how compound 1 affects ENL, AF9 and other proteins of SEC in the cytoplasmic and nuclear compartments, the latter of which are more relevant to the functions of these transcription cofactors. […] Upon treatment of MV4;11 cells with these compounds for 4 days, cytoplasmic and nuclear proteins were separated and subjected to SDS-PAGE/Western blot. […] In addition, nuclear levels of H3K79 methylation, the product of DOT1L catalyzed reactions, were not consistently affected by compound 1.
3 × 10^6 cells/well were treated with increasing concentrations of a compound for 1 day, and whole proteins were extracted. Equal amounts of proteins were separated on SDS-PAGE and transferred to PVDF membranes. The blots were probed with primary antibodies, followed by anti-rabbit IgG (Thermo Scientific) secondary antibodies. The primary antibodies against ENL (Cell signaling #14893), AF9 (Novusbio #NB100-1565), DOT1L (Cell signaling #77087), AFF4 (Abcam #ab103586), Cyclin T1 (Cell signaling #81464), H3K79me2 (Cell signaling #5427), H3K79me1 (Cell signaling #9398), Histone H3 (Cell signaling #4499), FLAG (Sigma-Aldrich #F1804), β-Actin (Cell signaling #4970) were used in this study.

Molm-13 cells [3] = assay: Annexin V apoptosis assay in Molm-13 cells; format: cell-based; details: 7 days
Procedure: Treatment of Molm-13 cells with compound 1 for 7 days at 1 and 3 µM caused significant apoptosis of 22.7% and 67.6%, respectively (Fig. 6c and Additional file 1: Fig. S6).
For Annexin V apoptosis assay, 10^5 cells/mL were incubated with increasing concentrations of a compound for 7 days. Apoptosis was determined using the FITC Annexin V Apoptosis Detection Kit I (BD Bioscience) using the manufacturer’s protocol. For other FACS assays, cells were labeled with fluorochrome-conjugated monoclonal antibodies against human CD14 and CD11b (BD Biosciences) according to the manufacturer’s recommendation. Cells were analyzed using a FACS Calibur (BD Biosciences/Applied Biosystems), and data were processed using the program Flowjo (version7.6.5).

RPMI-8226 cells = assay: Antiproliferation assay (XTT), RPMI-8226; details: Homo sapiens, RPMI-8226, 168 h, read-out: Antiproliferative activity, EC50, RPMI-8226
Procedure: as §1

C[C@H]1CCCN1Cc1nc2cc(NC(=O)c3ccc4c(cnn4CCCCCCCCNc4cccc5c4C(=O)N(C4CCC(=O)NC4=O)C5=O)c3)ccc2[nH]1 (stereo partly drawn) [Compound 1]
IC50 (AF9 YEATS): 750 ± 15 nM
Expression of HoxA9, Meis1 and Myc (HoxA9, Meis1 and Myc): significantly inhibit expression
EC50 (Molm-13 cells [1]; Homo sapiens, MOLM-13, 168 h, read-out: EC50 against proliferation of Molm-13 cells): 320 nM
Time-dependent activity against cell proliferation (Molm-13 cells [1]; Molm-13 cells): did not inhibit cell proliferation during the first 4 days
Levels of AF9, AFF4, cyclin-T1 and DOT1L [2]: not significantly decreased
Apoptosis (Molm-13 cells [3]; 0.5 μM): ≤ 5%
Apoptosis (Molm-13 cells [3]; 1 µM): 22.7%
Apoptosis (Molm-13 cells [3]; 3 µM): 67.6%
EC50 (RPMI-8226 cells): 1200 ± 230 nM
